Source: ChEMBL document CHEMBL1201862, “PubChem BioAssay data set” (2004)
Activity calls are given as the source filed them.

Legend:
[1] = target: T1, Dual specificity protein phosphatase 3 (Homo sapiens, UniProt P51452); assay: VHR1 phosphatase inhibitors, primary screen, biochemical, absorbance, uHTS (AID 1654)
[2] = target: T1, Dual specificity protein phosphatase 3; assay: VHR1 phosphatase inhibitors, biochemical (AID 1878)
[3] = target: T2, Dual specificity protein phosphatase 6 (Rattus norvegicus, UniProt Q64346); assay: inhibition of rat DUSP6 enzyme activity – biochemical, in vitro, primary screen (AID 425)
T2 sequence (Q64346 whole entry): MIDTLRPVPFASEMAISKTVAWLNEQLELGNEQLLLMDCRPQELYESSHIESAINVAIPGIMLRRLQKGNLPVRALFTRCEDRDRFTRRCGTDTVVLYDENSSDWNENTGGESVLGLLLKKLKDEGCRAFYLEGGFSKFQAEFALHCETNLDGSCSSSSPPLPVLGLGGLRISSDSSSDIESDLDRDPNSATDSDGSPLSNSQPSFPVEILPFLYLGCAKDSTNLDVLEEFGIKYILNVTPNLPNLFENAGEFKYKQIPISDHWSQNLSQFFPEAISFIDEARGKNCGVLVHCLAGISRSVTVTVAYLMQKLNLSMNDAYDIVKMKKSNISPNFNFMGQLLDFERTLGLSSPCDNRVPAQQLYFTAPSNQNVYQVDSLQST

Vero = assay: viability of Vero cells under compound – cytotoxicity control for flavivirus capping enzyme inhibitors (AID 588742); format: functional; settings: Chlorocebus sabaeus
Genome polyprotein = Genome polyprotein (dengue virus type 2, UniProt P29990); assay: flavivirus cap methylation enzyme inhibition – biochemical, confirmation dose response, primary screen (AID 588689); format: functional
[4] = target: T3, Carboxy-terminal domain RNA polymerase II polypeptide A small phosphatase 1 (Homo sapiens, UniProt Q9GZU7); assay: CTDSP1 inhibitors, concentration-response, biochemical, absorbance readout, ultra-high-throughput screen actives (AID 540297); format: functional
T3 sequence (Q9GZU7 whole entry): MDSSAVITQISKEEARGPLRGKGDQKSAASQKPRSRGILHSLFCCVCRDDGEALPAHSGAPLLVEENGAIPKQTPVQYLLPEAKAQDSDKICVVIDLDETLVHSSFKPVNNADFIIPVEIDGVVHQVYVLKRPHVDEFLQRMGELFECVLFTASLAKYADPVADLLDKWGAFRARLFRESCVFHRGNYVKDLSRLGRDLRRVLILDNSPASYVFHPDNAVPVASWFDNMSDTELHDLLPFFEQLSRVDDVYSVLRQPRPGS

[5] = target: T4, Small ubiquitin-related modifier 1 (Homo sapiens, UniProt P63165); assay: SUMO1 protein interaction blockers, potency – biochemical, fluorescence polarization, uHTS hits, dose response (AID 624382); format: functional; settings: read-out: IC50_Mean
[6] = target: T4, Small ubiquitin-related modifier 1; assay: SUMO1 protein-protein binding blockers, potency – biochemical, FRET, dose response (AID 624383); format: functional; settings: read-out: IC50_Mean
[7] = inhibition of ARNT PAS-B/TACC3 complex formation – biochemical, AlphaScreen, cherry-picked samples, confirmation (AID 651703); format: functional, Homo sapiens;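 note: His-tagged ARNT PAS-B domain paired with GST-TACC3 E629A dimer coactivator fragment; potency of inhibitors that break up the complex and lower AlphaScreen signal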
Bcl-2-related protein A1 = target: T5, Bcl-2-related protein A1 (Mus musculus, UniProt Q07440); format: functional;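 note: confirmatory dose–response counterscreen on Bfl-1, used to check hits from a UBC13 polyubiquitin inhibitor campaign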
T5 sequence (Q07440 whole entry): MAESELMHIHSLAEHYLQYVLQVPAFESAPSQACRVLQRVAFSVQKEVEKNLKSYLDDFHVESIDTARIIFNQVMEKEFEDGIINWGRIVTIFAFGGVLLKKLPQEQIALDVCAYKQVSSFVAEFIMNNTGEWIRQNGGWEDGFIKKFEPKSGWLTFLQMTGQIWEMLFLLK

[8] = target: T6, Ubiquitin-conjugating enzyme E2 N (Homo sapiens, UniProt P61088); format: functional
T6 sequence (P61088 whole entry): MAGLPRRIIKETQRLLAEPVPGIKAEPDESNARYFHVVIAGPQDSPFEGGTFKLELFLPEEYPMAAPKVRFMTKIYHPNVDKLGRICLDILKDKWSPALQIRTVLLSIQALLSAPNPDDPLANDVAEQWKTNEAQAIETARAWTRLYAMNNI

[9] = target: T6, Ubiquitin-conjugating enzyme E2 N; format: functional; remark: listed apart in the source
[10] = target: T7, Tyrosine-protein phosphatase non-receptor type 7 (Homo sapiens, UniProt P35236); assay: redox-active compounds inhibiting HePTP phosphatase – biochemical, fluorescence, mechanism study (AID 2068); format: functional
T7 sequence (P35236 whole entry): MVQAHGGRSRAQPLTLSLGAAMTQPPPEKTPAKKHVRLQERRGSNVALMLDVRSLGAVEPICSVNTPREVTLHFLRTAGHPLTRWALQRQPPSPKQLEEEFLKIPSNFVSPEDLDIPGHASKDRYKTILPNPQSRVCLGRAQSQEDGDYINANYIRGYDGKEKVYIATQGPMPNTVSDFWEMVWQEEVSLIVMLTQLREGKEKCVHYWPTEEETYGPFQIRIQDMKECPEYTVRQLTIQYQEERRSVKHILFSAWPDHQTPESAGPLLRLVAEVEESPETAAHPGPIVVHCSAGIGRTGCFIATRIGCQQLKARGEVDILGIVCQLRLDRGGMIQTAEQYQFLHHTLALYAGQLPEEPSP

HEK293 [11] = assay: inhibition of NOD1-driven NF-kB reporter – cell-based, luminescence, uHTS, primary screen (AID 1578); format: functional; settings: Homo sapiens
HEK293 [12] = assay: cells; format: functional, cell-based; settings: Homo sapiens
HEK293 [13] = assay: cells; format: functional, cell-based; settings: Homo sapiens; remark: listed apart in the source
[14] = target: Luciferin 4-monooxygenase (Photinus pyralis, UniProt P08659); assay: inhibition of purified Photinus pyralis luciferase – biochemical, luminescence, dose response (AID 1891)
[15] = Luminescence Cell-Based Dose Confirmation HTS to Identify Inhibitors of Platelet Dense Granule Release. [Related pubchem assays: 1663 (Primary HTS), 1678 (Summary of Project)]; format: functional
[16] = target: Nucleotide-binding oligomerization domain-containing protein 2 (Homo sapiens, UniProt Q9HC29); assay: inhibition of NOD2-driven NF-kB reporter – cell-based, luminescence, uHTS, HEK293 (AID 1566); format: functional
HEK293 [17] = assay: NOD2 signaling inhibitors in MDP-stimulated cells, cell-based, uHTS, luminescence (AID 2001); format: functional; settings: Homo sapiens
HEK293 [18] = assay: cells; format: functional, cell-based; settings: Homo sapiens; remark: listed apart in the source
[19] = reduction of Shn3 3'UTR-driven luciferase in osteoblasts – cell-based, Clone20 osteoblasts, firefly luciferase, cherry-picked, dose response (AID 624132); format: functional;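 note: firefly luciferase luminescence from reporter carrying the Shn3 3'UTR in osteoblasts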
[20] = loss of viability in HepG2 cells – cell-based, CellTiter-Glo, cherry-picked, cytotoxicity control for Shn3 inhibitor project, dose response (AID 624134); format: functional
[21] = non-specific 3'UTR reporter inhibition in Clone20-Shn3RL – cell-based, Renilla luciferase, cherry-picked, counter-screen for Shn3 inhibitor project, dose response (AID 624133); format: functional
[22] = target: 1-acylglycerol-3-phosphate O-acyltransferase ABHD5/Perilipin-5 (Homo sapiens, UniProt Q00G26+Q8WTS1); assay: Luminescence-based biochemical high throughput dose response assay for inhibitors of the interaction of the lipase co-activator protein, abhydrolase domain containing 5 (ABHD5) with perilipin-5 (MLDP; PLIN5) (2K validation set). [Related pubchem assays (depositor defined):AID493035, AID493241]
Perilipin-1/ABHD5 = Perilipin-1/ABHD5 (Homo sapiens, UniProt O60240+Q8WTS1); assay: Luminescence-based biochemical high throughput dose response assay for inhibitors of the interaction of the lipase co-activator protein, abhydrolase domain containing 5 (ABHD5) with perilipin-1 (PLIN1) (2K validation set). [Related pubchem assays (depositor defined):AID493027, AID493057]
Exodeoxyribonuclease V = Exodeoxyribonuclease V (Escherichia coli (strain K12), UniProt P04993+P07648+P08394); assay: RecBCD inhibition via phage-restricted bacterial growth – absorbance, V66 E. coli, mutant T4 phage, counter-screen for AddAB inhibitor project, dose response (AID 492957); format: functional, cell-based, Escherichia coli str. K-12 substr. MG1655
[23] = Counterscreen for AddAB inhibitors: absorbance-based bacterial cell-based high throughput dose response assay for inhibitors of bacterial viability. [Related pubchem assays (depositor defined):AID435030, AID449728, AID449731, AID488942, AID488955, AID488956]; format: functional

T1 sequence (P51452 whole entry): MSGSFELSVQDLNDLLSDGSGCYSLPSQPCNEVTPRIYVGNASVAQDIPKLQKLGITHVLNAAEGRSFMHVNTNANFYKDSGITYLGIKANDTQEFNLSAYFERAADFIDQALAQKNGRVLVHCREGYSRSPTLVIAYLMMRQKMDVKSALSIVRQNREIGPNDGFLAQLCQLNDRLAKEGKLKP
T4 sequence (P63165 whole entry): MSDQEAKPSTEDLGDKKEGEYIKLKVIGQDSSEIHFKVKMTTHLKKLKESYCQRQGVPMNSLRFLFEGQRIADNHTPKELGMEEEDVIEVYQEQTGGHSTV
Sequence of Perilipin-1/ABHD5 (Q8WTS1 whole entry, the tested form may be a part): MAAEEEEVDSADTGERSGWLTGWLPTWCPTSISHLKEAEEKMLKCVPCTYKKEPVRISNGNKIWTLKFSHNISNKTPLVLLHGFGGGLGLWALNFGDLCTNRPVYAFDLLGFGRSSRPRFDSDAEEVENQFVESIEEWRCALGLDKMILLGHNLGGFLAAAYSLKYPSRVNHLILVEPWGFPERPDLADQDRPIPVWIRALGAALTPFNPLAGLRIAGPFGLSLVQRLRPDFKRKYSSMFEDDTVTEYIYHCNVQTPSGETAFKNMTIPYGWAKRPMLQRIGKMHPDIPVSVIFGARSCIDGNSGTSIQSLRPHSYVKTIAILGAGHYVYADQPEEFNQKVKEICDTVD
Sequence of Perilipin-1/ABHD5 (O60240 whole entry, the tested form may be a part): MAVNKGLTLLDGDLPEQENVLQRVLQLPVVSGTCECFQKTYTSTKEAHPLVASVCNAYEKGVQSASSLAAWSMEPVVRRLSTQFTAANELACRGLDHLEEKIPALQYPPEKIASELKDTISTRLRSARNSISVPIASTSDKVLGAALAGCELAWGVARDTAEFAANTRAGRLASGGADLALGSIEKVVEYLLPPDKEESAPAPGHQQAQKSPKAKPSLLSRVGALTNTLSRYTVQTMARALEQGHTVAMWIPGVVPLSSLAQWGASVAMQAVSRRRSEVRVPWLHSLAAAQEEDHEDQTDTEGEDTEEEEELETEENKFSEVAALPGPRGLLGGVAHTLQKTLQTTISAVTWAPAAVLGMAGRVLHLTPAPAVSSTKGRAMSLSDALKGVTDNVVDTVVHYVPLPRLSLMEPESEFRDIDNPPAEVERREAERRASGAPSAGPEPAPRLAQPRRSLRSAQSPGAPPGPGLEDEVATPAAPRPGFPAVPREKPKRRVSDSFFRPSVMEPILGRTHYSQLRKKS
Sequence of Nucleotide-binding oligomerization domain-containing protein 2 (Q9HC29 whole entry, the tested form may be a part): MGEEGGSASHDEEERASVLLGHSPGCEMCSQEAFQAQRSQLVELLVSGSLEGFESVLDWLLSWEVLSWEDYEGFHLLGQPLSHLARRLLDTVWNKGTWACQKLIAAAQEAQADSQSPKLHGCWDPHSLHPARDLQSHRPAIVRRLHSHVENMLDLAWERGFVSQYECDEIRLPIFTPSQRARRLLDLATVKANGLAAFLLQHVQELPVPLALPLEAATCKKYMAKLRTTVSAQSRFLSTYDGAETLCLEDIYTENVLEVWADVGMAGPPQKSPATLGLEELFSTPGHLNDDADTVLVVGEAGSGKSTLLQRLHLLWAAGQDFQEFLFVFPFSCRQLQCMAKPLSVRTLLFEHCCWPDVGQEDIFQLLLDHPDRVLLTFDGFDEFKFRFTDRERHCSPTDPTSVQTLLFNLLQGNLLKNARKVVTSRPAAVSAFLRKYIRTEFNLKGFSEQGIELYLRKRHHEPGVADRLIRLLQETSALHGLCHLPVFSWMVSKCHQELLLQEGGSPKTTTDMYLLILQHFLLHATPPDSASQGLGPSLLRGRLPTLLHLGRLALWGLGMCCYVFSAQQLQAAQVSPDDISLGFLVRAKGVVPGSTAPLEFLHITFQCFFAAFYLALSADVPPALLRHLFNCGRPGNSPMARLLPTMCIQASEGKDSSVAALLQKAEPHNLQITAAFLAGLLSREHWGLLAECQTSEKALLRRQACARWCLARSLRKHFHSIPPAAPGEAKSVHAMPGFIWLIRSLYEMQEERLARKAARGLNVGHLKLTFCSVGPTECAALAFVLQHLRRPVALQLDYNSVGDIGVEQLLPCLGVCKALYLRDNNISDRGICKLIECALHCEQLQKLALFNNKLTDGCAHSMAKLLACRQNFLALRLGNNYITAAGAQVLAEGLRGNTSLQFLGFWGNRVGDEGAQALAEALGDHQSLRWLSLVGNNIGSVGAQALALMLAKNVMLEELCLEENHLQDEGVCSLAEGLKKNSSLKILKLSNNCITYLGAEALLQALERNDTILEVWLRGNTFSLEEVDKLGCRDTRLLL
Sequence of 1-acylglycerol-3-phosphate O-acyltransferase ABHD5/Perilipin-5 (Q00G26 whole entry, the tested form may be a part): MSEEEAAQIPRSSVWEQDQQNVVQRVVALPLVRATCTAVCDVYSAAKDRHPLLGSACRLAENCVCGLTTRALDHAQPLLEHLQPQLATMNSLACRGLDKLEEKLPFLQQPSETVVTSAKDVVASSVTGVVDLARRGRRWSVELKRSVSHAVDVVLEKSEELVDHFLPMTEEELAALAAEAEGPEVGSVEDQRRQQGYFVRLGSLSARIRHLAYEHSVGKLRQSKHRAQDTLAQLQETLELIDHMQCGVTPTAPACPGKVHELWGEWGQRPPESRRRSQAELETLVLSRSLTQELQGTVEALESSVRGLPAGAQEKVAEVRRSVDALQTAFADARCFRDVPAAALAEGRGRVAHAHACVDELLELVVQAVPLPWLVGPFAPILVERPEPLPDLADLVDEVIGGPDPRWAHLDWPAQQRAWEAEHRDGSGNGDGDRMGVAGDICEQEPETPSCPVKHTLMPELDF
Sequence of 1-acylglycerol-3-phosphate O-acyltransferase ABHD5/Perilipin-5 (Q8WTS1 whole entry, the tested form may be a part): as the sequence (Q8WTS1 whole entry, the tested form may be a part) above
Sequence of Luciferin 4-monooxygenase (P08659 whole entry): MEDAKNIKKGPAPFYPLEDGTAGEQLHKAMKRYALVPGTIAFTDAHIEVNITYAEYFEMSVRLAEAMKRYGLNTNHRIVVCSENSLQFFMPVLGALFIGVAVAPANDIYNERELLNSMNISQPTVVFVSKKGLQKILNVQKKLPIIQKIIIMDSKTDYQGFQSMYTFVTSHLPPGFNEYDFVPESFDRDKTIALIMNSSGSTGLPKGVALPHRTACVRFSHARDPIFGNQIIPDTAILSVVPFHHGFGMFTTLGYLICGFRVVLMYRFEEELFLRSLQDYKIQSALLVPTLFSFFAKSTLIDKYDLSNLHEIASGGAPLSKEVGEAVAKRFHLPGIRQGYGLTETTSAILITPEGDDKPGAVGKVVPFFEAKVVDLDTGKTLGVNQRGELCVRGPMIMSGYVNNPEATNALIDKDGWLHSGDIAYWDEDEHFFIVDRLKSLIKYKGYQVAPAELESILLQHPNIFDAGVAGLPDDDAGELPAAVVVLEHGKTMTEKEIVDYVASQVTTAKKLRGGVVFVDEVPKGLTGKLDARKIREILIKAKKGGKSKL
Sequence of Genome polyprotein (P29990 2492-3391 limits assumed): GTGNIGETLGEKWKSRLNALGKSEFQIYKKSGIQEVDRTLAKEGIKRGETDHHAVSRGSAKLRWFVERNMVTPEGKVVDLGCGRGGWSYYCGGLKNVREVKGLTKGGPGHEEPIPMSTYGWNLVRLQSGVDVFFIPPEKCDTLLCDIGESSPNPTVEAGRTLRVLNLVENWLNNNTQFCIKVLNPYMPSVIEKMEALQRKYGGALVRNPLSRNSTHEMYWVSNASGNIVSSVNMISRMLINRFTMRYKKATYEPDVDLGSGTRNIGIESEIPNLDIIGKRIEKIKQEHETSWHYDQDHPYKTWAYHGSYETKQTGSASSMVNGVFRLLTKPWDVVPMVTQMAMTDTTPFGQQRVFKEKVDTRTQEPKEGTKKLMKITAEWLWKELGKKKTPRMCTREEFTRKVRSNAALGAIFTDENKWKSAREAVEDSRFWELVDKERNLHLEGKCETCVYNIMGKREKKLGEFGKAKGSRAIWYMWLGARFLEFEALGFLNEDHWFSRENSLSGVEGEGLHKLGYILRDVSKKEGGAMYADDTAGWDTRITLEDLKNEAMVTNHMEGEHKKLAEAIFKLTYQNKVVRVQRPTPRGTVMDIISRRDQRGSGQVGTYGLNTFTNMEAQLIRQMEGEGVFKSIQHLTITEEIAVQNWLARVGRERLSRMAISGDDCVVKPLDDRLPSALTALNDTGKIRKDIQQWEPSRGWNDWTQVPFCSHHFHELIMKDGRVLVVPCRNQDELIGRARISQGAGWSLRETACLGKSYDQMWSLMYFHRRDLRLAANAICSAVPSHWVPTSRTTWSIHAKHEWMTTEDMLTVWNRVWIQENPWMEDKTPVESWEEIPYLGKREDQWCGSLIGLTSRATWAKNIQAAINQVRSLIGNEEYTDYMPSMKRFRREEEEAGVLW

Which results are given for `Cc1c(CCC(=O)O)c(=O)oc2c(C)c3occ(-c4ccc(Br)cc4)c3cc12`?
IC50 [1]: 11.1 µM (active); IC50 [2]: 11.3 µM (active); IC50 [3]: 69.2 µM (active); CC50 (Vero): > 40 µM (active); IC50 (Genome polyprotein): 33.2 µM (active); IC50 [4]: 3.57 µM (active); IC50 [5]: > 66.6 µM (inactive); IC50 [6]: 12.6 µM (active); AC50 [7]: 99.5 µM (active)

Which results are given for `NC(=S)N=Nc1c(O)n(C2OC(=O)c3ccccc32)c2ccccc12` (stereo not drawn)?
IC50 (Bcl-2-related protein A1): > 20 µM (inactive); IC50 [8]: 3.62 µM (active); IC50 [9]: 2.38 µM (active)

Which IC50 [10] does the source give for `O=C(NCc1ccccc1)Nc1ccc2nc(-c3ccco3)c(-c3ccco3)nc2c1` here?
Its IC50 is 1.54 µM (active).

Which results are given for `CCC1CCCCN1S(=O)(=O)c1ccc(NC(=O)c2ccncc2)cc1` (stereo not drawn)?
EC50 (HEK293 [11]): 5.51 µM (active); IC50 (HEK293 [12]): 8.23 µM (active); IC50 (HEK293 [13]): 19.3 µM (active); EC50 [14]: > 112 µM (not active); EC50 [15]: > 112 µM (not active); EC50 [16]: > 20 µM (inactive); IC50 (HEK293 [17]): 11.7 µM (inactive); IC50 (HEK293 [18]): > 20 µM (inactive); AC50 [19]: 3.43 µM (active); AC50 [20]: 4.88 µM (active); AC50 [21]: 16.5 µM (active)

Which results are given for `O=C(/C=C/c1ccccc1)c1ccccc1` [CHALCONE]?
IC50 [22]: 4.25 µM (active); IC50 (Perilipin-1/ABHD5): 4.19 µM (active)

Which IC50 (Exodeoxyribonuclease V) does the source give for `COc1ccc(OCC(O)CNc2ccc(Br)cc2)cc1` (stereo not drawn) here?
The IC50 was > 119 µM (inactive).

And the IC50 [23]?
The IC50 was > 119 µM (inactive).
